Experimental data published in US5747447A, “Stable polypeptide composition” (COR Therapeutics, priority 1995, dated 1998).
Like-named read-outs stand apart in the source and are kept apart here. Where a SMILES comes first, the peptide text is derived from it. Bridges are numbered along the chain shown (N, C = ends). [ ]: non-standard residue; d: D form. hArg = N=C(N)NCCCC[C@H](N)C(=O)O; Mpa = O=C(O)CCS

Assays:
[1] = Stability of polypeptide I in citrate buffer, HPLC and visual (Example 1); type: physicochemical; conditions: citrate buffer pH 5.00 and 5.50 versus pH 6.0
Experimental: Citrate buffer solution is prepared by mixing citric acid in a volumetric flask to give a final citrate concentration of 25 mM with Nanopure water and adding NaOH to adjust the pH.
One ml aliquots of the above solution of polypeptide in citrate buffer were sealed in borosilicate glass ampules under sterile conditions and stored at a constant temperature. Test sample ampules from each pH and temperature condition 4° C., 50° C. and 70° C. were removed periodically, visually assessed and then analyzed separately by HPLC using a mobile phase comprising acetonitrile (MeCN) and 0.1% trifluoroacetic (TFA) in water. This stability was evaluated by conventional assay methods applicable to purity, weight or size of polypeptides. These included not only visual evaluations, such as discoloration, transparency and precipitation, and included assays normally applied to separate polypeptides from each other and from other materials by reversed phase high performance liquid chromatography (HPLC).
Results of these experiments are set forth in Table 1 in which the stability is expressed in terms of the percentage of main peak of original polypeptide found in the sample analyzed by HPLC. The composition was also found to be normal on visual evaluation.

[2] = Experimental: 20 ml aliquots of the above solution were placed into Type I glass vials and sealed with rubber stoppers and aluminum closures under sterile conditions and stored at a constant temperature. Test sample vials from each temperature condition, -15° C., 5° C., 30° C. and 45° C. were removed periodically and individually assessed and analyzed for stability by HPLC and visual evaluation as described in Example 1.
[3] = target: ADP-induced human platelet aggregation (Homo sapiens, UniProt P05106+P08514); experiment: standard aggregation inhibition assay (ADP-induced human platelet aggregation); type: cell-based
ADP-induced human platelet aggregation, sequence (P08514 32-1039): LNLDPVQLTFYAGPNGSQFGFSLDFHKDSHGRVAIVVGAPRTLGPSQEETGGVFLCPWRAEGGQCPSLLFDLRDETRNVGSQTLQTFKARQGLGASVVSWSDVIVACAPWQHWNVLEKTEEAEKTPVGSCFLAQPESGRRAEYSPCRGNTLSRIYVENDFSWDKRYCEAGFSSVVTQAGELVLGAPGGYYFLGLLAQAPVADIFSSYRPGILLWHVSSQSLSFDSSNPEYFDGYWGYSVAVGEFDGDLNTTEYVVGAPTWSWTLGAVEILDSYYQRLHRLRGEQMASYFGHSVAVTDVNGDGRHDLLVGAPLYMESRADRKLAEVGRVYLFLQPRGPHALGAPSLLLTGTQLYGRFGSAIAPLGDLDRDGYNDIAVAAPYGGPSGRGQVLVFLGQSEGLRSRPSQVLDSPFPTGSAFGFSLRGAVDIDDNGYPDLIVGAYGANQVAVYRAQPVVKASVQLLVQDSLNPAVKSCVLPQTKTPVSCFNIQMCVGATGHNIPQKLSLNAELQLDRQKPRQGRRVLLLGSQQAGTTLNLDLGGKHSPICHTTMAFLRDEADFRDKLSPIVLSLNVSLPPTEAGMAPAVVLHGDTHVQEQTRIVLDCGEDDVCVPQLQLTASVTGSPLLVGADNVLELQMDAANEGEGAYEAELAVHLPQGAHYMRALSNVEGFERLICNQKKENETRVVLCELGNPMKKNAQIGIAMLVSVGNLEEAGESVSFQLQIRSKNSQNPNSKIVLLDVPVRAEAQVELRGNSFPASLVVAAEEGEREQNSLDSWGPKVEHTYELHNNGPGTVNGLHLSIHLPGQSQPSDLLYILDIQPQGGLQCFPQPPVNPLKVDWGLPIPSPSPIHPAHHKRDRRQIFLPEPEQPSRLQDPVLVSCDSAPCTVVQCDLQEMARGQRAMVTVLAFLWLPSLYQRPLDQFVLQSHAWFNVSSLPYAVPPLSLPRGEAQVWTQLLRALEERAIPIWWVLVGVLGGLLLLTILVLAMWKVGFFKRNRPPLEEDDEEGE
ADP-induced human platelet aggregation, sequence (P05106 27-788): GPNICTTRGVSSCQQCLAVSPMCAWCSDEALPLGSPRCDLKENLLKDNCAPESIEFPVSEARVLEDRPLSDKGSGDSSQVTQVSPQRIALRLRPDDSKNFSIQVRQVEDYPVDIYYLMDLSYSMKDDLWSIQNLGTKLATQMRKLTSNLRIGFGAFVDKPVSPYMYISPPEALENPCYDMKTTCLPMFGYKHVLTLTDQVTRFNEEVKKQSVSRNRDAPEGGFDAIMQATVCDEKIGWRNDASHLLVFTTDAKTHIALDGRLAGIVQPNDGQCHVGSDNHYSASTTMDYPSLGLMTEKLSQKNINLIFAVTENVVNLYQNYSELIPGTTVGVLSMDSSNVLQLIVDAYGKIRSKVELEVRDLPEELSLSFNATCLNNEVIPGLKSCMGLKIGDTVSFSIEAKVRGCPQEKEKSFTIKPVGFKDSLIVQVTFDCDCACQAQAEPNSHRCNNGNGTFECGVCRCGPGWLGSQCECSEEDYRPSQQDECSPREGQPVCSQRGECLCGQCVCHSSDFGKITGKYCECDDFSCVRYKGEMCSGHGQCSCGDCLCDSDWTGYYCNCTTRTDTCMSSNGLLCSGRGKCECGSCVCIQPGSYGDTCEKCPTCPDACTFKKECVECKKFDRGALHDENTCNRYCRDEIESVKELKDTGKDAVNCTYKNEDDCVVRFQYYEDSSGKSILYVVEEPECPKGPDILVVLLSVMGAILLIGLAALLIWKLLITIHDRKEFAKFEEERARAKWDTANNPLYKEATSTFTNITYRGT
Description: 2. Standard assays directly applied to platelet aggregation, such as those described by Gann, Z.-R., et al., J Biol Chem (1988) 263:19827-19832; Huang, T. F., et al., J Biol Chem (1987) 262:16157-16163; Biochemistry (1989) 28:661-666, cited above and incorporated herein by reference;

M21 melanoma cells = experiment: M21 melanoma cell adhesion to vitronectin-coated plates; type: cell-based
Experimental: M21 melanoma cells were labelled with ^35 S-methionine, and then added to vitronectin-coated plates in the presence of the indicated concentrations of purified snake venom peptides. Cell attachment was measured by solubilizing the cells remaining after an incubation and wash, as previously describe.

vitronectin receptor = vitronectin receptor (Homo sapiens, UniProt P05106+P06756); experiment: plate assay, inhibition of vitronectin binding to vitronectin receptor; conditions: at concentrations up to 1 uM
vitronectin receptor, sequence (P06756 31-889 limits assumed): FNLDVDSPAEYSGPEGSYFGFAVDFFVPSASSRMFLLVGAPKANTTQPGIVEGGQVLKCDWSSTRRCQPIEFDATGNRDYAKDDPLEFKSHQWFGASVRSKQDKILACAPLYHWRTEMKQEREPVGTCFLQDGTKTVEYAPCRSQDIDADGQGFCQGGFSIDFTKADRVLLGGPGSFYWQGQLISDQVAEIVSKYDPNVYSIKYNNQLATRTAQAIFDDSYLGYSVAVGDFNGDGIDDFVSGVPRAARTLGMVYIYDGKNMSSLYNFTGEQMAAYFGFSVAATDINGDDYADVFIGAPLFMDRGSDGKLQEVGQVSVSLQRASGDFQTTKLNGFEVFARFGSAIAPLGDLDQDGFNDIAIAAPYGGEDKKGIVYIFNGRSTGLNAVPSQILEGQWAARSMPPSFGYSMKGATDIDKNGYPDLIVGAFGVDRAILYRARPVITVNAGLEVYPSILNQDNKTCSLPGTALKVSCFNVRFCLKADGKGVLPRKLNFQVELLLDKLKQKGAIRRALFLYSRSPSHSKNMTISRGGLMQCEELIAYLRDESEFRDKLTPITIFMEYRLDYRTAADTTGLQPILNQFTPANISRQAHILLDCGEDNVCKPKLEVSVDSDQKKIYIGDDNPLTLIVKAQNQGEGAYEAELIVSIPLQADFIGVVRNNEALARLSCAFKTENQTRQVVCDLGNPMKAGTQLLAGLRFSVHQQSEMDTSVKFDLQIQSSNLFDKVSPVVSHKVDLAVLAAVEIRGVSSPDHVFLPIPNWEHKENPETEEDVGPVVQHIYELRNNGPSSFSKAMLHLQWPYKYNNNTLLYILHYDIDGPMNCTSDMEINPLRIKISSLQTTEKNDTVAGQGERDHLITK
vitronectin receptor, sequence (P06756 891-1048 limits assumed): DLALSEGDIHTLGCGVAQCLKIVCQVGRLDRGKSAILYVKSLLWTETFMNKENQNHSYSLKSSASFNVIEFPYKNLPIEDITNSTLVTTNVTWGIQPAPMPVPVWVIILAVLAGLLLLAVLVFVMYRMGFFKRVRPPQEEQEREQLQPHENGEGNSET
vitronectin receptor, sequence (P05106 27-788): as the sequence (P05106 27-788) above
Description: The PAI assay systems further include characterization of the PAI specificity by binding inhibition assays identical to that above but substituting other adhesive proteins for Fg and other receptors for GP IIb-IIIa. In particular, inhibition of the binding of vitronectin to the vitronectin receptor; fibronectin to the fibronectin receptor; fibronectin to GP IIb-IIIa and fibrinogen and/or vWF to GP IIb-IIIa can be assessed. The adhesive protein and receptors for these assays are available in the art.

Molecule: N=C(N)NCCCC[C@@H]1NC(=O)CCSSC[C@@H](C(N)=O)NC(=O)[C@@H]2CCCN2C(=O)[C@H](Cc2c[nH]c3ccccc23)NC(=O)[C@H](CC(=O)O)NC(=O)CNC1=O [I, Mpr-L-homoarginine-Gly-Asp-Trp-Pro-Cys-NH2 .cndot.acetate] ([Mpa][hArg]GDWPC-NH2; disulfide 1-7)
- stability of liquid solution (in words) [1]: unexpectedly very stable at about 4° C., still stable at up to about 50 °C and much more stable at 70 °C in comparison to citrate buffer solutions at pH 6.0
- Peptide Stability in 5.5 pH Citrate Buffer Composition (HPLC as in Example 1) ([2]; 5° C., Time (days) 0): 98.8
- Peptide Stability in 5.5 pH Citrate Buffer Composition (HPLC as in Example 1) ([2]; 5° C., Time (days) 76): 98.6
- Peptide Stability in 5.5 pH Citrate Buffer Composition (HPLC as in Example 1) ([2]; 5° C., Time (days) 126): 98.5
- Peptide Stability in 5.5 pH Citrate Buffer Composition (HPLC as in Example 1) ([2]; 5° C., Time (days) 222): 98.5
- Peptide Stability in 5.5 pH Citrate Buffer Composition (HPLC as in Example 1) ([2]; 5° C., Time (days) 301): 98.2
- Peptide Stability in 5.5 pH Citrate Buffer Composition (HPLC as in Example 1) ([2]; 5° C., Time (days) 399): 98.2
- Peptide Stability in 5.5 pH Citrate Buffer Composition (HPLC as in Example 1) ([2]; 5° C., Time (days) 572): 98.2
- Peptide Stability in 5.5 pH Citrate Buffer Composition (HPLC as in Example 1) ([2]; 30° C. after one month at 5° C., Time (days) 45): 97.4
- Peptide Stability in 5.5 pH Citrate Buffer Composition (HPLC as in Example 1) ([2]; 30° C. after one month at 5° C., Time (days) 95): 96.4
- Peptide Stability in 5.5 pH Citrate Buffer Composition (HPLC as in Example 1) ([2]; 30° C. after one month at 5° C., Time (days) 191): 95.8
- Peptide Stability in 5.5 pH Citrate Buffer Composition (HPLC as in Example 1) ([2]; 30° C. after one month at 5° C., Time (days) 270): 95.1
- Peptide Stability in 5.5 pH Citrate Buffer Composition (HPLC as in Example 1) ([2]; 30° C. after one month at 5° C., Time (days) 368): 94.5
- Peptide Stability in 5.5 pH Citrate Buffer Composition (HPLC as in Example 1) ([2]; 30° C. after one month at 5° C., Time (days) 541): 93.6
- Peptide Stability in 5.5 pH Citrate Buffer Composition (HPLC as in Example 1) ([2]; 45° C. after one month at 5° C., Time (days) 45): 96.1
- Peptide Stability in 5.5 pH Citrate Buffer Composition (HPLC as in Example 1) ([2]; 45° C. after one month at 5° C., Time (days) 95): 94.1
- Peptide Stability in 5.5 pH Citrate Buffer Composition (HPLC as in Example 1) ([2]; 45° C. after one month at 5° C., Time (days) 191): 92.4
- Peptide Stability in 5.5 pH Citrate Buffer Composition (HPLC as in Example 1) ([2]; 45° C. after one month at 5° C., Time (days) 270): 89.8
- Peptide Stability in 5.5 pH Citrate Buffer Composition (HPLC as in Example 1) ([2]; 45° C. after one month at 5° C., Time (days) 368): 86.5
- Peptide Stability in 5.5 pH Citrate Buffer Composition (HPLC as in Example 1) ([2]; 45° C. after one month at 5° C., Time (days) 541): 76.1
- Peptide Stability in 5.5 pH Citrate Buffer Composition (HPLC as in Example 1) ([2]; -15° C. after one month at 5° C., Time (days) 45): 98.9
- Peptide Stability in 5.5 pH Citrate Buffer Composition (HPLC as in Example 1) ([2]; -15° C. after one month at 5° C., Time (days) 95): 99.0
- Peptide Stability in 5.5 pH Citrate Buffer Composition (HPLC as in Example 1) ([2]; -15° C. after one month at 5° C., Time (days) 191): 99.1
- Peptide Stability in 5.5 pH Citrate Buffer Composition (HPLC as in Example 1) ([2]; -15° C. after one month at 5° C., Time (days) 270): 98.7
- Peptide Stability in 5.5 pH Citrate Buffer Composition (HPLC as in Example 1) ([2]; -15° C. after one month at 5° C., Time (days) 368): 98.6
- Peptide Stability in 5.5 pH Citrate Buffer Composition (HPLC as in Example 1) ([2]; -15° C. after one month at 5° C., Time (days) 541): 98.9

Molecule: [E^28 L^41 C^64 ]barbourin (28-73) [Analog #1]
- platelet aggregation inhibition activity (in words) [3]: potent inhibitors of platelet aggregation
- M21 cell attachment to vitronectin (in words) (M21 melanoma cells): Neither barbourin nor Peptide 1 (truncated barbourin) had a significant effect
- affinity for VnR (in words) (vitronectin receptor): relative lack of affinity
